Assay results from patent US10195267B2, “Vaccination strategy” (priority 2013, dated 2019).
Oligonucleotides are written 5' to 3', each unit as a sugar letter and its base; * is a phosphorothioate linkage, no mark a phosphodiester; rarer units and linkages stand in square brackets, end groups in braces. Plain capitals give the bases only. d = 2'-deoxy (DNA)

Experiments:
[1] = tested on: recombinant adenovirus expressing OVA and luciferase (AdLOG); assay: Acute adenoviral infection, in vivo bioluminescence as indicator of antiviral CTL activity in the liver
[2] = tested on: lymphocytic choriomeningitis virus (LCMV); type: in vivo, mice
[3] = tested on: AdHBV (Hepatitis B Virus); assay: Chronic AdHBV infection, HBc-DNA vaccination followed by TLR9-L at d12; type: in vivo, mice
From the text: (a) Mice with chronic AdHBV-infection after 1×10^8 ifu AdHBV-infection. Time course of serum ALT following HBc-DNA vaccination (d0) and TLR9-L or CTRL treatment (d12). OVA-DNA vaccination as control. (n=5 per group). (b-f) At d15 after vaccination, (b) immunohistochemistry for CD11 b and CD8 in the liver as described in (a) at d15 after vaccination; (c) increase of HBc93-100-specific CTLs in spleen and liver detected by dextramer-staining. (n=3 per group), ND, not detectable; (d) IFNγ-producing HBc93-100-specific CTLs isolated from livers of mice after HBc-peptide-specific restimulation ex vivo; (e) total numbers of IFNγ-producing HBc93-100-specific CTLs after peptide-specific restimulation ex vivo per gram liver (n=3, per group); (f) PD-1 expression levels on HBc93-100-specific CTLs directly ex vivo. (g) Serum HBeAg levels from mice as described in (a). (h) Immunohistochemical detection and (i) quantification of HBcore-Ag-positive hepatocytes at d42 after vaccination. HPF, high power field (magnification, 100×). *P<0.05, **P<0.01, ***P<0.001 (paired Student's t-test). Data are representative of three experiments (a, c, d, e, f, g) or two experiments (b, h, i) (a, c, e, i; error bars, s.d.).
C57BL/6J mice were infected with 1×10^8 ifu AdHBV intravenously leading to chronic AdHBV infection, as reported previously (Huang et al. Gastroenterology 2012; 142:1447-50). DNA immunization was performed as described (Huang et al. Gastroenterology 2012; 142:1447-50). After immunization, HBeAg and serum ALT (alanine aminotransferase) activity measured using GPT strips on a REFLOVET™. Plus reader (Roche) were checked at indicated time points. Livers were collected for immunohistochemical analysis. Analysis of CTL number and function ex vivo was done as described previously (Huang et al. Gastroenterology 2012; 142:1447-50).
In this model, therapeutic DNA-vaccination leads to a weak increase in circulating HBV-specific CTLs but fails to control chronic_AdHBV infection. Mice with chronic AdHBV infection were subjected to DNA-vaccination with plasmids coding for the HBV core (HBc) antigen or OVA and received TLR9-L treatment 12 d later.

CD8+ T cells (TCM, TEM) = assay: Proliferation of adoptively transferred TCM and TEM in the liver (BrdU incorporation, 7-AAD); type: in vivo, mice; conditions: 3 days after intravenous TLR9-ligand
CTLs = assay: Local CTL expansion in iMATEs in the liver after systemic TLR9-L application; type: in vivo, mice
From the text: We discovered that CTL activation by simultaneous stimulation through the TCR, CD28 and IL-12 in vitro, together with systemic application of TLR9-L led to a 50-fold expansion of CTLs locally in the liver. Myeloid cell aggregates, herewith termed iMATEs, which formed in the liver upon TLR9-signaling, facilitate massive CTL expansion, which contributes to anti-viral immunity and overcomes chronic viral infection in mice.

OT-I CTLs = assay: Hepatic OT-I CTL expansion and iMATE formation in AdLGO- or AdLG-infected mice
[4] = TLR9-L at d12 after HBcore-DNA vaccination

## 5′-S-TCCATGACGTTCCTGATGCT-3′ (DNA dT*dC*dC*dA*dT*dG*dA*dC*dG*dT*dT*dC*dC*dT*dG*dA*dT*dG*dC*dT) [TLR9-L]
[1]; TLR9-L application alone, mice infected with 10^6 ifu AdLOG
  in vivo bioluminescence (hepatic viral luciferase expression): did not significantly reduce
[1]; transfer of 10^4 OT-I CTLs together with TLR9-L, 10^6 ifu AdLOG
  time to efficient control of hepatic viral luciferase expression: ≤ 4 days
[2]; LCMV-specific CTL transfer (10^6/mouse) together with TLR9-L at d0, d7 and d10
  numbers of LCMV gp33-specific CTLs in the liver: significant increase
[2]; LCMV-specific CTL transfer together with TLR9-L injection
  LCMV titers in serum and liver: dropped to background levels
[2]; TLR9-L application alone, d14 after the first transfer
  numbers of LCMV-specific CTLs: did not lead to significant increases
[2]; chronic LCMV-infected mice
  iMATE induction in livers: can be induced
[3]; DNA vaccination (HBc or OVA) and TLR9-L 12 d later, most pronounced in HBc-vaccinated mice
  serum ALT: transient rise
[3]; HBc-DNA vaccination in combination with TLR9-L, after 28 d
  serum HBeAg levels: significant downregulation
[3]; HBc-DNA vaccination in combination with TLR9-L, d42
  HBV-infected (HBcore-Ag-positive) hepatocytes: elimination
[3]; HBc-DNA vaccination plus TLR9-L
  PD1 expression on recently activated CD69+ HBcore-specific CTLs: lower expression levels
[3]; [4]
  IFNgamma expression of HBcore-specific CTLs upon antigen-specific restimulation ex vivo: functional and expressed IFNγ
  expansion of HBc-specific CTLs in livers: pronounced expansion
[3]; mice with chronic AdHBV infection
  iMATE formation: induced iMATE formation
CD8+ T cells (TCM, TEM)
  proliferation of adoptively transferred TEM in the liver: marked proliferation
CD8+ T cells (TCM, TEM); cells in S and G2-M phase
  proliferation of adoptively transferred TCM in the liver: strong proliferation
CTLs; CTLs activated in vitro through TCR, CD28 and IL-12, with systemic TLR9-L
  expansion of CTLs locally in the liver: 50 fold
CTLs; single TLR9-L application
  autoimmunity: did not trigger autoimmunity
OT-I CTLs; AdLG-infected mice (no OVA antigen), 1x10^5 activated OT-I CTLs plus TLR9-L
  numbers of hepatic OT-I CTLs: increase
OT-I CTLs; AdLGO-infected TLR9-L-injected mice, compared with AdLG-infected mice given TLR9-L
  further expansion of OT-I CTLs: 7 fold
OT-I CTLs; upon TLR9-L injection in adenovirus-infected mice
  formation of iMATEs: further improved
